According to ChEMBL document CHEMBL1201862, “PubChem BioAssay data set” (2004):
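96-well plates; 48 h exposure; 5 concentrations. Endpoints by linear interpolation between flanking doses. Not reached: highest tested concentration assigned. GI50: concentration for 50% inhibition of growth.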 The source made the active and inactive calls. No stated cut-off is given here; in the data, active = GI50 up to about 1.1 µM and inactive = higher.

Key:
Assay in all cases: NCI anticancer screen, dose series, 48 h
[1] = tested on: OVCAR-4
[2] = tested on: OVCAR-8
[3] = tested on: 786-0
[4] = tested on: K562
[5] = tested on: M14
[6] = tested on: MCF7
[7] = tested on: SF-539
[8] = tested on: DU-145
[9] = tested on: PC-3
[10] = tested on: HCT-116
[11] = tested on: SR
[12] = tested on: MOLT-4
[13] = tested on: SF-268
[14] = tested on: MDA-MB-231
[15] = tested on: U-251
[16] = tested on: SK-MEL-5
[17] = tested on: CAKI-1
[18] = tested on: SW-620
[19] = tested on: SNB-75
[20] = tested on: EKVX

| Structure (SMILES) | GI50 [1] | GI50 [2] | GI50 [3] | GI50 [4] | GI50 [5] | GI50 [6] | GI50 [7] | GI50 [8] | GI50 [9] | GI50 [10] | GI50 [11] | GI50 [12] | GI50 [13] | GI50 [14] | GI50 [15] | GI50 [16] | GI50 [17] | GI50 [18] | GI50 [19] | GI50 [20] |
| --- | --- | --- | --- | --- | --- | --- | --- | --- | --- | --- | --- | --- | --- | --- | --- | --- | --- | --- | --- | --- |
| CN(C)/N=N/c1[nH]cnc1C(N)=O [DACARBAZINE] | 34.8 µM (inactive) | 44.5 µM (inactive) | 87.9 µM (inactive) | 16 µM (inactive) | 27.2 µM (inactive) | 89.7 µM (inactive) | 65.6 µM (inactive) | 71.9 µM (inactive) | > 96.4 µM (inactive) | 38.5 µM (inactive) | 18.9 µM (inactive) | 20.7 µM (inactive) | 63.8 µM (inactive) | 51.3 µM (inactive) | 92 µM (inactive) | 74.6 µM (inactive) | 19 µM (inactive) | 55.1 µM (inactive) | 35.7 µM (inactive) |  |
| CC(=O)OC(C)(C)/C=C/C(=O)[C@](C)(O)[C@H]1[C@H](O)C[C@@]2(C)[C@@H]3CC=C4[C@@H](C[C@H](O)C(=O)C4(C)C)[C@]3(C)C(=O)C[C@]12C | < 0.01 µM (active) | 0.064 µM (active) | < 0.01 µM (active) | < 0.01 µM (active) | < 0.01 µM (active) | < 0.01 µM (active) | < 0.01 µM (active) | < 0.01 µM (active) | < 0.01 µM (active) | < 0.01 µM (active) | < 0.01 µM (active) | 0.167 µM (active) | < 0.01 µM (active) | < 0.01 µM (active) | < 0.01 µM (active) | < 0.01 µM (active) | < 0.01 µM (active) | < 0.01 µM (active) | < 0.01 µM (active) | 0.0102 µM (active) |
| COc1ccc(C[C@@H]2OC3(C=CC(=O)C=C3)O[C@H]2Cc2ccc(OC)cc2)cc1 | 0.957 µM (active) | 0.193 µM (active) | 0.184 µM (active) | 0.61 µM (active) | 0.889 µM (active) | 0.558 µM (active) | 1.14 µM (inactive) | 1.48 µM (inactive) | 1.33 µM (inactive) | 0.133 µM (active) | 0.176 µM (active) | 0.173 µM (active) | 0.771 µM (active) | 1.39 µM (inactive) | 1.28 µM (inactive) | 1.52 µM (inactive) | 0.354 µM (active) | 0.114 µM (active) | 1.68 µM (inactive) | 1.89 µM (inactive) |
| CCN(C(=O)N[C@H](C(=O)N[C@@H](CSC)C(=O)N[C@@H](C)C(=O)OC)C(C)C)c1ccccc1 | 20 µM (inactive) | 17.2 µM (inactive) | 17.2 µM (inactive) | 13.1 µM (inactive) | 14.2 µM (inactive) | 16.1 µM (inactive) | 19.6 µM (inactive) | 17.4 µM (inactive) | 16.9 µM (inactive) | 16.7 µM (inactive) | 3.83 µM (inactive) | 8.3 µM (inactive) |  | 15.1 µM (inactive) | 15.9 µM (inactive) | 16.7 µM (inactive) | 20 µM (inactive) | 14.6 µM (inactive) | 12.4 µM (inactive) | 13.5 µM (inactive) |
| c1ccc(-c2cc(-c3ccncc3)cc(-c3ccncc3)n2)cc1 | > 100 µM (inactive) | > 100 µM (inactive) | 69.3 µM (inactive) | > 100 µM (inactive) | > 100 µM (inactive) | 0.618 µM (active) |  | > 100 µM (inactive) | > 100 µM (inactive) | > 100 µM (inactive) | > 100 µM (inactive) | > 100 µM (inactive) | 45.6 µM (inactive) | > 100 µM (inactive) | 51.3 µM (inactive) | > 100 µM (inactive) | > 100 µM (inactive) | > 100 µM (inactive) | 29 µM (inactive) | > 100 µM (inactive) |
| O=c1c2c3c(sc2nc2n1N=CN(c1ccccc1)C2)CCCC3 | > 100 µM (inactive) | > 100 µM (inactive) | > 100 µM (inactive) | > 100 µM (inactive) | > 100 µM (inactive) | > 100 µM (inactive) |  | > 100 µM (inactive) | > 100 µM (inactive) | > 100 µM (inactive) | > 100 µM (inactive) | > 100 µM (inactive) | > 100 µM (inactive) | > 100 µM (inactive) | > 100 µM (inactive) | > 100 µM (inactive) | > 100 µM (inactive) | > 100 µM (inactive) | > 100 µM (inactive) | > 100 µM (inactive) |
| O=C(N[C@H](CO)[C@H](O)c1ccc([N+](=O)[O-])cc1)C(Cl)Cl [CHLORAMPHENICOL] | > 95.9 µM (inactive) | > 100 µM (inactive) | > 100 µM (inactive) | > 100 µM (inactive) | > 100 µM (inactive) | > 100 µM (inactive) | > 100 µM (inactive) | > 100 µM (inactive) | > 100 µM (inactive) | > 100 µM (inactive) | > 100 µM (inactive) | > 100 µM (inactive) | > 100 µM (inactive) | 47.8 µM (inactive) | > 100 µM (inactive) | > 100 µM (inactive) | > 100 µM (inactive) | > 100 µM (inactive) | 98.2 µM (inactive) | > 100 µM (inactive) |
